Series [1] is described as follows: Chronic therapeutic index as ratio of potency in adjuvant-induced arthritis assay to that of potency in intestinal toxicity assay. Conditions: read-out: Chronic TI.
Series [2] deals with Rattus norvegicus. Description: Percent change in average volume of pleural fluid at a dose 4 mg/kg of indomethacin and 5-h response is evaluated by Evans blue-carrageenan induced pleural effusion assay. Type of series: functional.
Series [3] concerns Mus musculus. Description: Oral analgesic activity was determined in mice by the acetylcholine-induced abdominal constriction assay upon ip administration of acetylcholine bromide 20 min following oral administration. Type of series: functional. Particulars: Abdomen.
Series [4] concerns Mus musculus. Description: Oral analgesic activity was determined in mice by the acetylcholine-induced abdominal constriction assay upon ip administration of acetylcholine bromide 5 hours following oral administration. Type of series: functional. Conditions: Abdomen.
For series [5], the system named is Rattus norvegicus. Put plainly: Acute gastric toxicity (single oral dose) in male fasted rats. Type of series: organism-based, Stomach. Conditions: in vivo.
Series [6] is described as follows: Acute therapeutic index as ratio of potency in pleural effusion to that of potency in gastric toxicity assay. Type of series: tissue-based. Conditions: Stomach; read-out: Acute TI.
The species entered for series [7] is Rattus norvegicus. Put plainly: Evaluated for acute potency in pleural effusion assay. Type of series: functional.
A further series addresses T1, Cyclooxygenase (Bos taurus, UniProt O62664+O62698).
T1 sequence (O62664 whole entry): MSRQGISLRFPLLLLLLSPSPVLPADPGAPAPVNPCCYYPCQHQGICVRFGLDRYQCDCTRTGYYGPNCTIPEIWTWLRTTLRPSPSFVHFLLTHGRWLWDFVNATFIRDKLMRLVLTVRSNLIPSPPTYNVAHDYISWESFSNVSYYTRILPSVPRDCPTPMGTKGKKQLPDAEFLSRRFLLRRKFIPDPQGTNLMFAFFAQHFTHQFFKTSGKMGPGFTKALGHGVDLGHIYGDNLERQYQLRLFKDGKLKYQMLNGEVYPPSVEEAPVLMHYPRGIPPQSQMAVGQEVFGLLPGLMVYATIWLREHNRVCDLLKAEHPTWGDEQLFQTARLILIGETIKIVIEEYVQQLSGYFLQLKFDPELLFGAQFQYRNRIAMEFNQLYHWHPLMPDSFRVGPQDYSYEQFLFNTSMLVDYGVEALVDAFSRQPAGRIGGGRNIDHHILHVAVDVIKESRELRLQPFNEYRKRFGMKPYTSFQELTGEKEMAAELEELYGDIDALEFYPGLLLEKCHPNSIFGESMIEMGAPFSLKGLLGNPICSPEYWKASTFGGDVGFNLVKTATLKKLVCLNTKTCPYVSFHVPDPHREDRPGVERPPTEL
T1 sequence (O62698 whole entry): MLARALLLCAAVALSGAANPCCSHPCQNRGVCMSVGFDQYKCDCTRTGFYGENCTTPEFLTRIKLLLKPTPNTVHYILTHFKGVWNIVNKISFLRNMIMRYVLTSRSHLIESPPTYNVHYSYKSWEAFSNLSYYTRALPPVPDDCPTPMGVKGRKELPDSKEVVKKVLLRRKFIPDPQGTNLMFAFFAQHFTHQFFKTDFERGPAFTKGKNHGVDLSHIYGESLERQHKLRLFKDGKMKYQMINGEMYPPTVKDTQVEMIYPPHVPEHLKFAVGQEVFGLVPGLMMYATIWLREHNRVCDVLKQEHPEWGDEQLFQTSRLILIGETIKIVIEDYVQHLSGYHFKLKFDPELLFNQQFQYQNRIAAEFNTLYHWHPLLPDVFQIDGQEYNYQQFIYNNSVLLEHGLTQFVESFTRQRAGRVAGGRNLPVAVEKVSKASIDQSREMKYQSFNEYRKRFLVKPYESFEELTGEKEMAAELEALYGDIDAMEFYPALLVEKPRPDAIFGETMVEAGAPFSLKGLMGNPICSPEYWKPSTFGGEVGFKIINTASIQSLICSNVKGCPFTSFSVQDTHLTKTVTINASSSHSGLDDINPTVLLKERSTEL

For series [8], the system named is Rattus norvegicus. Put plainly: Percent change in average volume of pleural fluid at a dose of 4.0 mg/kg and 5-h response by Evans blue-carrageenan induced pleural effusion assay. In kind it is functional.
For series [9], the species on record is Rattus norvegicus. Put plainly: Evaluated for chronic potency in adjuvant arthritis assay. Type of series: functional.
The subject of series [10] is Rattus norvegicus. Put plainly: Evaluated for chronic intestinal toxicity (multiple oral dose) in rats. In kind it is organism-based. Particulars: in vivo.
In series [11] the test system is Rattus norvegicus. Put plainly: Percent change in avg. volume of pleural fluid at a dose of 0.16 mg/kg and 5-h response is evaluated by Evans blue-carrageenan induced pleural effusion assay.
Series [12] relates to Rattus norvegicus. Description: Percent change in avg. volume of pleural fluid at a dose of 4.0 mg/kg and 5-h response is evaluated by Evans blue-carrageenan induced pleural effusion assay. Type of series: functional.
The subject of series [13] is Rattus norvegicus. Description: Percent change in average volume of pleural fluid at a dose of 100 mg/kg and 5-h response by Evans blue-carrageenan induced pleural effusion assay. Type of series: functional.
In series [14] the test system is Rattus norvegicus. Description: Percent change in avg. volume of pleural fluid at a dose 4 mg/kg of indomethacin and 5-h response is evaluated by Evans blue-carrageenan induced pleural effusion assay. Type of series: functional.

Description for Cyclooxygenase: Inhibition of prostaglandin G/H synthase obtained from bovine seminal vesicles.

One may read the ED50 as the midpoint of the dose-response relation. Low values mean greater potency, high ones weaker potency. By IC50 is commonly meant the concentration that inhibits the measured activity by half. Turning to `Nc1c(CC(=O)[O-])cc(Cl)cc1C(=O)c1ccc(Cl)cc1.[Na+]`, the selectivity ratio in series [1] was 1.4; in [6], 3.8. Also, the Change in the series on Rattus norvegicus [2] is on record as -32%; in the series on Rattus norvegicus [8], -41%; with Rattus norvegicus [11] it was -18%. Besides, the ED50 turned out to be 0.23 mg/kg in the series with Mus musculus [3] and 0.31 mg/kg in the series with Mus musculus [4]. The Gastric toxicity with Rattus norvegicus [5] turned out to be 1.2. For the same compound, the Potency in the series listed under Rattus norvegicus [7] came to 4.6; in the series filed under Rattus norvegicus [9], 1.7. The compound further registered an IC50 at Cyclooxygenase of 300 nM. This compound showed an Intestinal toxicity in the series on Rattus norvegicus [10] of 1.2.
For `Nc1cc(C(=O)c2ccccc2)ccc1CC(=O)[O-].[Na+]`, the Change in the series on Rattus norvegicus [12] is listed as -31%; with Rattus norvegicus [13], -2%.
`Nc1ccc(CC(=O)O)cc1C(=O)c1ccccc1`: the Change in the series on Rattus norvegicus [8] is -4%; in the series on Rattus norvegicus [14], -31%.
For the compound `Nc1c(CC(=O)[O-])cccc1C(=O)c1ccc(Cl)cc1.[Na+]`, the selectivity ratio stood at 1.6 in series [1] and 4.3 in series [6]. Moreover, the Change in the series with Rattus norvegicus [2] was -33%; in the series with Rattus norvegicus [8], -29%; with Rattus norvegicus [11], -16%; in the series on Rattus norvegicus [13], -38%. Moreover, the median effective dose (ED50) with Mus musculus [3] was determined as 0.1 mg/kg; with Mus musculus [4], 0.93 mg/kg. Moreover, the Gastric toxicity in the series with Rattus norvegicus [5] is recorded as 0.9. Further, the Potency in the series listed under Rattus norvegicus [7] amounted to 3.8; in the series filed under Rattus norvegicus [9] it was 2.2. On Cyclooxygenase, this compound showed an IC50 of 300 nM. Also, the Intestinal toxicity with Rattus norvegicus [10] was determined as 1.4.
`Nc1ccc(C(=O)c2ccccc2)cc1CC(=O)O`: the Change with Rattus norvegicus [2] was -43%; in the series with Rattus norvegicus [12], 11%.
Regarding `Nc1c(CC(=O)[O-])cccc1C(=O)c1ccc(I)cc1.[Na+]`, the results for the selectivity ratio in series [1] and in [6] were 2.5 and 1.3, respectively. In addition, the Change in the series on Rattus norvegicus [2] was -32%; in the series with Rattus norvegicus [8], -31%; in the series with Rattus norvegicus [11], -17%; in the series on Rattus norvegicus [13] it was -44%. In addition, the ED50 was 0.13 mg/kg with Mus musculus [3] and 0.18 mg/kg in the series with Mus musculus [4]. This compound also came in with a Gastric toxicity in the series with Rattus norvegicus [5] of 5.3. The Potency in the series listed under Rattus norvegicus [7] came out at 6.9; in the series filed under Rattus norvegicus [9], 8.1. Moreover, the IC50 against Cyclooxygenase worked out at 70 nM. For the same compound, the Intestinal toxicity in the series with Rattus norvegicus [10] worked out at 3.3.
For `Nc1cccc(C(=O)c2ccccc2)c1CC(=O)[O-].[Na+]`, the Change in the series with Rattus norvegicus [8] was -2%; in the series on Rattus norvegicus [14], -35%.
`COc1cc(CC(=O)[O-])c(N)c(C(=O)c2ccccc2)c1.[Na+]`: the half-inhibitory concentration (IC50) on Cyclooxygenase was determined as 5400 nM. Also, the results for the Change in the series on Rattus norvegicus [8] and with Rattus norvegicus [14] were -18% and -48%, respectively.
As to `Nc1c(CC(=O)[O-])cccc1C(=O)c1ccc(Br)cc1.Nc1c(CC(=O)[O-])cccc1C(=O)c1ccc(Br)cc1.O.O.O.[Na+].[Na+]` [BROMFENAC SODIUM], the results for the selectivity ratio in series [1] and in series [6] were 3.2 and 5.4, respectively. Further, the Change with Rattus norvegicus [2] was -41%; with Rattus norvegicus [8], -43%; with Rattus norvegicus [11], -27%. The ED50 in the series with Mus musculus [3] amounted to 0.07 mg/kg; with Mus musculus [4], 0.13 mg/kg. Moreover, the Gastric toxicity in the series with Rattus norvegicus [5] was determined as 1.4. The Potency was found to be 7.5 in the series filed under Rattus norvegicus [7] and 5.8 in the series filed under Rattus norvegicus [9]. The compound further came in with a half-maximal inhibitory concentration (IC50) against Cyclooxygenase of 80 nM. For the same compound, the Intestinal toxicity in the series with Rattus norvegicus [10] worked out at 1.8.

For the origin of these results see ChEMBL document CHEMBL1122779, “Antiinflammatory agents. 3. Synthesis and pharmacological evaluation of 2-amino-3-benzoylphenylacetic acid and analogues” (J Med Chem, 1984).
